These results are taken from patent EP0435826A1, “Intravenous solutions for epilepsy” (CIBA-GEIGY AG, priority 1989, dated 1991).

Data set [1] has as its system Tonische Konvulsionen der Hinterextremitäten. In words: Maximal electroshock test in mice (Elektroschock Test an Mäusen). The format is in vivo. To be noted: Mäuse; for ED50: Mus musculus, read-out: Schutz vor dem maximalen Elektroschock ED50. The text has this:
(§1) Beispiel 5: Die akute Schutzwirkung von Carbamazepin und Oxcarbazepin nach intravenöser Verabreichung im Vergleich zur oralen wurde mit Hilfe des maximalen Elektroschocks ermittelt. Die folgenden Methoden wurden verwendet:
(§2) -Elektroschock Test an Mäusen: Tonische Konvulsionen der Hinterextremitäten wurden durch Verabreichung eines Wechselstromes von 50 Hz und 18 mA während 0,2 Sekunden mittels Cornealelektroden ausgelöst. Für jede Dosis und Zeiteinheit wurden 10 Mäuse verwendet; eine Gruppe diente als Kontrolle. Die Anzahl der Mäuse, die keine tonische Konvulsionen der Hinterextremitäten zeigte, wurde für jede Gruppe bestimmt. Die ED₅₀ wurde mit Hilfe der Regressionsanalyse nach der Methode von Spearman und Kärber bestimmt. Die Injektionsvolumina für i.v. Verabreichung sind 5 ml/kg bei Mäusen und 1 ml/kg bei Ratten.
Background: The maximal electroshock test induces tonic seizures with an electrical stimulus.

For data set [2] the test system is unchanged. In words: Maximal electroshock test in rats (Elektroschock Test an Ratten). The format is in vivo. To be noted: for ED50: Rattus norvegicus, read-out: Schutz vor dem maximalen Elektroschock ED50.
From the text: as §1
-Elektroschock Test an Ratten: Tonische Konvulsionen der Hinterextremitäten wurden durch Verabreichung eines Wechselstroms von 50 Hz und 36 mA während 0,63 Sekunden mit Hilfe von Cornealelektroden ausgelöst. Es wurden 10 Ratten pro Dosis und Zeiteinheit verwendet; eine Gruppe diente als Kontrolle. Die Anzahl der Ratten, die keine tonische Konvulsionen der Hinterextremitäten aufwiesen, wurde für jede Gruppe bestimmt. Die ED₅₀ wurde mit Hilfe der Regressionsanalyse nach der Methode von Spearman und Kärber berechnet.
as §2
[…] Die ED₅₀-Werte wurden durch Regressionsanalyse aus drei verschiedenen Dosen (10 Ratten pro Dosis) berechnet.

The nature of data set [3]: Solubility and properties of aqueous Hydroxypropyl-γ-cyclodextrin injection solutions. The conditions noted are these: 22°C, in 40%-iger wässriger Lösung von Hydroxypropyl-γ-cyclodextrin.
Procedure: In 100 ml dieser Lösung werden 1500 mg Carbamazepin durch Rühren bei Raumtemperatur (= 20°C) gelöst.
In 100 ml dieser Lösung werden 400,0 mg fein gemahlenes Oxcarbazepin durch Rühren bei 22°C gelöst.
[4] abbreviates: iv, 2.5 min, intravenös, 2,5 min.
Where [5] appears, read: po, 1 h, oral (suspension in Methocel®), 60 min.
Setting [6] is: po, 2 h, oral (suspension in Methocel®), 120 min.
Where [7] appears, read: iv, 5 min, intravenös, 5 min before shock.
Where [8] appears, read: iv, 0.25 h, intravenös, 15 min before shock.
The mark [9] stands for this setting: po, 5 min, oral (suspension in Methocel®), 5 min.
[10] abbreviates: po, 0.5 h, oral (suspension in Methocel®), 30 min.
Setting [11] is: po, 0.25 h, oral (suspension in Methocel®), 15 min.

The ED50 is the dose at which the effect has come halfway, by size or by number of responders.

As to `NC(=O)N1c2ccccc2C=Cc2ccccc21` [Carbamazepin, 5H-Dibenz[b,f]azepin-5-carboxamid], the ED50 in data set [1] (setting [4]) stood at 2.9 mg/kg; in data set [1] (iv, 5 min, intravenös, 5 min), 2.6 mg/kg; in data set [1] (iv, 0.25 h, intravenös, 15 min), 4.7 mg/kg; in data set [1] (iv, 0.5 h, intravenös, 30 min), 6.8 mg/kg; in data set [1] (iv, 1 h, intravenös, 60 min), 6.5 mg/kg; in data set [1] (iv, 2 h, intravenös, 120 min), 17.3 mg/kg. In addition, the 50% effective dose (ED50) in data set [1] (setting [5]) worked out at 13 mg/kg; in data set [1] (setting [6]) it was 27 mg/kg; in data set [2] (setting [7]) it was 2.5 mg/kg; in data set [2] (setting [8]), 2.5 mg/kg; in data set [2] (iv, 0.5 h, intravenös, 30 min) it was 2 mg/kg; in data set [2] (iv, 1 h, intravenös, 60 min) it was 3.1 mg/kg. Also, the 50% effective dose (ED50) in data set [2] (iv, 2 h, intravenös, 120 min) came to 4.3 mg/kg; in data set [2] (po, 2.5 min, oral (suspension in Methocel®), 2,5 min), 60 mg/kg; in data set [2] (setting [9]) it was 60 mg/kg; in data set [2] (setting [10]) it was 9.6 mg/kg; in data set [2] (setting [5]), 10 mg/kg. Besides, the “Schutz vor dem maximalen Elektroschock” value in data set [1] (oral (suspension in Methocel®), 2,5 min, bei 60 mg/kg) is 10 % bei 60 mg/kg.
For `NC(=O)N1c2ccccc2CC(=O)c2ccccc21` [Oxcarbazepin, 10,11-Dihydro-10-oxo-5-dibenz[b,f]-acepin-5-carboxamid], the 50% effective dose (ED50) in data set [1] (setting [4]) was found to be 4.35 mg/kg; in data set [1] (iv, 5 min, intravenös, 5 min), 4.35 mg/kg; in data set [1] (iv, 0.25 h, intravenös, 15 min) it was 5 mg/kg; in data set [1] (iv, 0.5 h, intravenös, 30 min), 7.07 mg/kg; in data set [1] (iv, 1 h, intravenös, 60 min), 10.7 mg/kg; in data set [1] (setting [9]) it was 40.4 mg/kg. Moreover, the ED50 in data set [1] (setting [11]) worked out at 14.5 mg/kg; in data set [1] (setting [10]) it was 15.7 mg/kg; in data set [1] (setting [5]), 17.8 mg/kg; in data set [1] (setting [6]), 36.3 mg/kg; in data set [2] (setting [7]), 3.44 mg/kg; in data set [2] (setting [8]) it was 2.5 mg/kg. Also, the ED50 in data set [2] (iv, 0.5 h, intravenös, 30 min) came out at 3.44 mg/kg; in data set [2] (iv, 1 h, intravenös, 60 min), 4.85 mg/kg; in data set [2] (iv, 2 h, intravenös, 120 min) it was 5.7 mg/kg; in data set [2] (setting [11]) it was 12.2 mg/kg; in data set [2] (setting [10]) it was 12.2 mg/kg; in data set [2] (setting [5]), 15.8 mg/kg. Further, the ED50 in data set [2] (setting [6]) came out at 16.1 mg/kg. Also, the “Schutz vor dem maximalen Elektroschock ED50” value is 2,35 mg/kg in data set [1] (intravenös, 2,5 min, 2.5 min); 5,00 mg/kg in data set [1] (intravenös, 15 min); 10,72 mg/kg in data set [1] (intravenös, 60 min); 3,44 mg/kg in data set [2] (intravenös, 15 min before shock, 15 min). The “Schutz vor dem maximalen Elektroschock” value in data set [1] (intravenös, 120 min, bei 20 mg/kg) turned out to be 20 % bei 20 mg/kg; in data set [2] (oral (suspension in Methocel®), 5 min, bei 30 mg/kg), 20 % bei 30 mg/kg. Further, in data set [3], the Löslichkeit was 37 mg in 10,0 ml.
